Test results from article PMC8156206, “Novel N,N′-Disubstituted Selenoureas as Potential Antioxidant and Cytotoxic Agents” (Antioxidants, 2021).

Legend:
[1] = ABTS radical scavenging assay; settings: for ABTS radical scavenging kinetics: 0.03 mg/mL
Experimental: (§1) From all the methods available for the prediction of the antioxidant properties, DPPH^● and ABTS^●+ assays were chosen according to their simplicity, accessibility, and effectiveness for a fast prediction of radical scavenging activities in vitro. The radical scavenging capacity of the novel selenoureas was determined by DPPH^● and ABTS^●^+ assays. Measurements were recorded on a BioTeck PowerWave XS spectrophotometer (BioTeck Instruments, Winooski (VT), USA) and the data were collected using KCJunior software (BioTeck Instruments, Winooski (VT), USA).
As well as DPPH, ABTS radical scavenging assay is a colorimetric method. ABTS (2,2′-azino-bis(3-ethylbenzothiazoline-6-sulfonic acid) was dissolved in deionized water at 1 mg/mL and oxidized to ABTS^●+ with potassium persulfate (2.45 mM final concentration). This oxidation process is not instantaneous, and the reaction mixture was kept in the dark overnight at room temperature. After ABTS^●+ radical was generated, the ABTS^●+ solution was diluted with 50% ethanol until an absorbance of 0.70 ± 0.02 at 734 nm for measurements was achieved. Stock solution of 1 mg/mL in absolute ethanol was prepared for each selenourea, and different dilutions were prepared to reach the final concentration, when 20 µL of this solution were added to 180 µL of the diluted ABTS^●+. The absorbance at 734 nm was recorded using 50% ethanol as blank. Trolox and Asc were used as positive controls. All determinations were carried out in triplicate. Same time intervals as in the DPPH assay were also measured. The ability to scavenge ABTS^●+ was calculated using the following formula:(2) % ABTS radical scavenging=Acontrol − Asample/Acontrol × 100 where Acontrol refers to the absorbance of the negative control and Asample refers to the absorbance of the tested compounds. The results are expressed as percentage of ABTS radical scavenging ± SD.
In order to confirm the antioxidant activity of the selenoureas, we performed an additional ABTS (2,2′-azino-bis(3-ethylbenzothiazoline-6-sulfonic acid) radical scavenging assay. Following the results obtained in the DPPH assay, this experiment was performed at 0.03 and 0.003 mg/mL. Measurements were recorded after 0′, 6′ and 60′ of incubation with ABTS. For comparison purposes, Trolox and ascorbic acid were used as references. The remarkable results are summarized in Figure 3.

[2] = tested on: HT-29 cells (colon carcinoma); test: MTT cell viability assay, HT-29; type: cell-based; settings: Homo sapiens, 48 h, MTT, read-out: cell viability, percentage of live cells; for viability at 10 µM: HT-29, 10 µM; for viability at 50 µM: HT-29, 50 µM
Experimental: (§2) Cell lines were purchased from the American Type Culture Collection (ATCC). MCF-7, HTB-54, BEAS-2B and 184B5 cell lines were grown in RPMI 1640 medium (Gibco) supplemented with 10% fetal bovine serum (FBS; Gibco), 100 units/mL penicillin, and […] streptomycin (Gibco). HT-29 and HCT-116 cell lines was cultured in McCoy’s 5A (Gibco), 10% FBS, 100 units/mL penicillin, and 100 μg/mL streptomycin. Cells were maintained at 37 °C and 5% CO2. Culture medium was replaced every three days.
(§3) A cell viability assay of each compound was carried out using an MTT assay. Each selenourea was dissolved in dimethyl sulfoxide (DMSO) at a concentration of 0.01 M. Serial dilutions were prepared with non-supplemented culture medium. Cytotoxic activity of each selenourea was determined at two different concentrations (10 and 50 µM) in MCF-7, HTB-54, and HT-29 cells. In addition, selected compounds were tested at seven different concentrations (0.1, 1, 5, 10, 25, 50, 100 µM) on MCF-7, HT-29, HCT-116, HTB-54, 184B5, and BEAS-2B cells. The number of passages before defrosting the cells was 3, and they were kept under culture up to a maximum of 15.
(§4) Briefly, 1 × 10^4 cells/well were grown in 96-well plates for 24 h. Then, these cells were incubated with either DMSO (negative control) at 5 µM or a different concentration of each tested selenourea for 48 h. A volume of 20 µL of MTT was added 150 min before the termination point to measure cellular viability. After this time, culture medium was removed. The resultant formazan crystals were dissolved in 50 µL of DMSO, and absorbance was measured at 570 nm. Results are expressed as IC50, the half maximal inhibitory concentration. This value was calculated using GraphPad Prism 7 software by nonlinear curve fitting. Furthermore, the selectivity index (SI) was calculated as the ratio of the IC50 values determined for the non-malignant and the tumoral cells (IC50 (184B5)/IC50 (MCF-7) or (IC50 (BEAS-2B)/IC50 (HTB-54). Data were obtained from at least three independent experiments performed in triplicates.
(§5) The cytotoxic effects of synthesized compounds were evaluated against three human cancer cell lines: breast adenocarcinoma (MCF-7), lung adenocarcinoma (HTB-54), and colon carcinoma (HT-29), using a 3-[4,5-dimethylthiazol-2-yl]-2,5-diphenyltetrazolium bromide (MTT) assay. Firstly, the compounds were screened at two doses (50 and 10 µM) and after 48 h of treatment. The results are summarized in Figure 4 and are presented as percentages of growth inhibition related to control.

[3] = DPPH radical scavenging assay; settings: for DPPH radical scavenging capacity compared with ascorbic acid: at lower concentrations; for DPPH radical scavenging kinetics: 0.03 mg/mL, time-point 0 min
Experimental: as §1
A DPPH assay was performed, as described by Svinyarov. Stock solutions of 1 mg/mL were initially prepared for each selenourea in methanol and this solution was used for the preparation of the different concentrations employed in the assay. Ascorbic acid (Asc) was used as positive control due to the literature reports that this derivative is a potent antioxidant and radical scavenger. A volume of 100 µL from a previously prepared stock solution (preserved in dark and daily prepared) of DPPH (100 µM) in methanol were added to 100 µL of the methanolic selenoureas solutions prepared previously, and the antioxidant activity these compounds was assessed by its ability to decolorize DPPH● radical (purple color in methanol) to DPPHH (colorless). Thus, radical scavenging activity was estimated by the decrease in the absorbance at 517 nm. Determinations were recorded at different time-points. All the measurements were carried out in triplicate. Results are expressed as the percentage of the radicals scavenged, calculated using the following formula:(1) % DPPH radical scavenging=Acontrol − Asample/Acontrol × 100 where Acontrol refers to the absorbance of the negative control and Asample refers to the absorbance of the tested compounds. Results are expressed as percentage of DPPH radical scavenging ± SD.
In order to determine the radical scavenging of these newly synthesized selenourea derivatives, the DPPH assay was firstly employed. Measurements were performed at four different concentrations ranging from 0.0003 to 0.03 mg/mL, and collected at time-points between 0 min and 120 min (Figures S81–S100). Results are presented as the percentage of inhibition for DPPH radical scavenging activity.

[4] = tested on: MCF-7 cells (breast adenocarcinoma); test: MTT cell viability assay, MCF-7; type: cell-based, human; settings: Homo sapiens, MCF7, 48 h, MTT, read-out: cell viability, percentage of live cells; for viability at 10 µM: MCF-7, 10 µM; for viability at 50 µM: MCF-7, 50 µM
Experimental: as §2, §3, §4, §5

[5] = tested on: HTB-54 cells (lung adenocarcinoma); test: MTT cell viability assay, HTB-54; type: cell-based, human; settings: Homo sapiens, 48 h, MTT, read-out: cell viability, percentage of live cells; for viability at 10 µM: HTB-54, 10 µM; for viability at 50 µM: HTB-54, 50 µM
Experimental: as §2, §3, §4, §5

Row | Compound | ABTS radical scavenging kinetics [1] | viability at 10 µM [2] [%] | viability at 50 µM [2] [%] | melting point [°C] | DPPH radical scavenging capacity compared with ascorbic acid [3] | viability at 10 µM [4] [%] | viability at 50 µM [4] [%] | viability at 10 µM [5] [%] | viability at 50 µM [5] [%] | DPPH radical scavenging kinetics [3] | ABTS radical scavenging activity ([1]; 0.003 mg/mL, 60 min) | ABTS radical scavenging activity compared with Trolox ([1]; 0.003 mg/mL, 60 min)
1 | O=C1O[C@H]([C@@H](O)CO)C(O)=C1O [ascorbic acid, reference compound] | reached the maximal ABTS radical scavenging activity quickly |  |  |  |  |  |  |  |  |  |  | 
2 | Cc1c(C)c2c(c(C)c1O)CCC(C)(C(=O)O)O2 (centres unmarked) [Trolox, reference compound] | reached the maximal ABTS radical scavenging activity quickly |  |  |  |  |  |  |  |  |  |  | 
3 | Cc1ccc(NC(=[Se])NCc2nccs2)cc1 [Compound 2b] |  | 88.3 | 49.6 | 154 | greater radical scavenging capacity than ascorbic acid | 65.5 | 16.8 | 53.1 | 18.1 |  |  | 
4 | Cc1ccc(NC(=[Se])NCc2ccco2)cc1 [Compound 1b] |  | 66.2 | 43.1 |  |  | 64.8 | 12.4 | 52.1 | 21.6 |  |  | 
5 | COc1ccc(NC(=[Se])Nc2ccc3oc(=O)ccc3c2)cc1 [Compound 3c] |  | 58.2 | 34.3 | 159 |  | 73.9 | 17.4 | 61.6 | 9.7 | reaching the maximum activity at time-point 0′ |  | 
6 | COc1ccc(NC(=[Se])NCc2nccs2)cc1 [Compound 2c] |  | 88.9 | 53.1 | 150 | greater radical scavenging capacity than ascorbic acid | 60 | 33.1 | 58.5 | 30.3 |  | above 90% | 
7 | N#Cc1ccc(NC(=[Se])NCc2nccs2)cc1 [Compound 2e] |  | 57.9 | 59.2 | 152 |  | 62.3 | 43.6 | 66.6 | 40.1 | reaching the maximum activity at time-point 0′ | above 90% | 
8 | [Se]=C(NCc1ccco1)Nc1ccccc1 [Compound 1a] |  | 70.4 | 44.6 | 109 |  | 75.7 | 32.3 | 63.5 | 20.5 |  |  | 
9 | CCCCNC(=[Se])Nc1ccc(C#N)cc1 [Compound 4e] |  | 60.7 | 46.3 | 145 |  | 70.7 | 39 | 74.6 | 29.7 | reaching the maximum activity at time-point 0′ |  | 
10 | CCCCCCNC(=[Se])Nc1ccc(Cl)cc1 [Compound 5d] |  | 69.1 | 42.5 | 110 |  | 81.3 | 17.3 | 81.4 | 57.2 |  |  | significant lower radical scavenging activity than Trolox
11 | COc1ccc(NC(=[Se])NCc2ccco2)cc1 [Compound 1c] |  | 70.5 | 39.1 | 128 |  | 64 | 21.5 | 55.7 | 28.8 |  |  | 
12 | CCCCCCNC(=[Se])Nc1ccc(C#N)cc1 [Compound 5e, N-hexyl-N´-(4-cyanophenyl)selenourea] |  | 59.1 | 40.4 | 125 |  | 68.5 | 14.7 | 80.2 | 23.3 | reaching the maximum activity at time-point 0′ |  | 
13 | O=c1ccc2cc(NC(=[Se])Nc3ccc(Cl)cc3)ccc2o1 [Compound 3d] |  | 59.1 | 35.7 | 156 |  | 69.7 | 28.6 | 70.1 | 14 | reaching the maximum activity at time-point 0′ |  | 
14 | CCCCNC(=[Se])Nc1ccc(Cl)cc1 [Compound 4d] |  | 64.4 | 46 | 116 |  | 50.3 | 34.1 | 58.1 | 38 |  |  | 
15 | CCCCCCNC(=[Se])Nc1ccc(OC)cc1 [Compound 5c] |  | 62.6 | 31.1 | 97 |  | 60.1 | 8.1 | 70.4 | 10.7 |  |  | 
16 | Cc1ccc(NC(=[Se])Nc2ccc3oc(=O)ccc3c2)cc1 [Compound 3b] |  | 57.1 | 46.1 | 145 |  | 73.8 | 29.2 | 62.9 | 27.3 | reaching the maximum activity at time-point 0′ |  | 
